According to ChEMBL document CHEMBL6153137, “Design, Synthesis, and Biological Evaluation of Novel Orally Available Covalent CDK12/13 Dual Inhibitors for the Treatment of Tumors” (J Med Chem, 2025):
Calls of active or inactive are those of the source. No cut-off for these calls is given here.

Assays:
[1] = biological target: Cyclin-dependent kinase 7 (Homo sapiens) (UniProt P50613); experiment: Inhibition of CDK7 (unknown origin) at 5 uM by DiscoverX KinomeScan ScanMAX analysis
HCT-116 [2] = experiment: Antiproliferative activity against PARG KO human HCT-116 cells assessed as reduction in cell viability incubated for 7 days by CellTiter-Glo reagent based luminescence analysis; type: functional; conditions: HCT-116, 168 h
[3] = AUC in Balb/c mouse xenografted with human MV4-11 cells at 30 mg/kg, po administered once daily via gavage; type: ADME, organism-based; conditions: in vivo
[4] = biological target: Mitogen-activated protein kinase 8 (Homo sapiens) (UniProt P45983); experiment: Inhibition of JNK1 (unknown origin) at 5 uM by DiscoverX KinomeScan ScanMAX analysis
[5] = biological target: CDK6/cyclin D1 (Homo sapiens) (UniProt P24385+Q00534); experiment: Inhibition of human recombinant N-terminal GST-tagged CDK6/N-terminal GST-tagged and C-terminal 6X His-tagged Cyclin D1 expressed in HEP Sf9 cells using ATP as substrate at 2 uM measured after 60 mins by ADP-Glo reagent based luminescence analysis
HCT-116 [6] = experiment: Antiproliferative activity against human HCT-116 cells assessed as reduction in cell viability incubated for 7 days by CellTiter-Glo reagent based luminescence analysis; type: functional; conditions: HCT-116, 168 h
Mus musculus [7] = experiment: In vivo inhibition of CDK12/13 in Balb/c mouse xenografted with human SUM149PT cells assessed as reduction in BRCA1 gene expression at 15 to 30 mg/kg, po administered once daily via gavage and measured at 4 hrs post-last drug dosage by qPCR analysis; type: functional, organism-based; conditions: dose 15-30 mg/kg
[8] = Half life in male Sprague-Dawley rat at 40 mg/kg, po administered once daily via gavage for 28 days; type: ADME, organism-based; conditions: in vivo, time 28 day
Mus musculus [9] = experiment: In vivo inhibition of CDK7 in Balb/c mouse xenografted with human SUM149PT cells assessed as reduction in phosphorylation of Ser5 on RNA Pol II at 15 to 30 mg/kg, po administered once daily via gavage and measured at 4 hrs post-last drug dosage by western blot analysis; type: functional, organism-based; conditions: dose 15-30 mg/kg
[10] = Half life in male Sprague-Dawley rat at 20 mg/kg, po administered via gavage and measured on day 1; type: ADME, organism-based; conditions: in vivo
[11] = biological target: T1, Cyclin-dependent kinase 12/13 (Homo sapiens) (UniProt Q14004+Q9NYV4); experiment: Inhibition of CDK12/13 in human SUM149PT cells assessed as reduction in FANCI gene expression at 500 nM incubated for 8 to 24 hrs by qPCR analysis; type: cell-based; conditions: time lower 8.0 hrs, time upper […]
Mus musculus [12] = experiment: In vivo inhibition of CDK12/13 in Balb/c mouse xenografted with human SUM149PT cells assessed as reduction in FANCI gene expression at 15 to 30 mg/kg, po administered once daily via gavage and measured at 4 hrs post-last drug dosage by qPCR analysis; type: functional, organism-based; conditions: dose 15-30 mg/kg
[13] = Toxicity against female Sprague-Dawley rat assessed as effect on phosphorus level in blood at 7.5 to 30 mg/kg, po administered once daily via gavage for 28 days and measured on day 29; type: organism-based; conditions: in vivo, 696 h, dose 7.5-30 mg/kg, time 29 day
HCC1395 = experiment: Antiproliferative activity against human HCC1395 cells assessed as reduction in cell viability incubated for 7 days by CellTiter-Glo reagent based luminescence analysis; type: functional; conditions: HCC1395, 168 h
[14] = AUC(0 to t) in female Sprague-Dawley rat at 30 mg/kg, po administered once daily via gavage for 28 days; type: ADME, organism-based; conditions: in vivo, 672 h, time 28 day
[15] = biological target: T1, Cyclin-dependent kinase 12/13 (Homo sapiens); experiment: Inhibition of CDK12/13 in human SUM149PT cells assessed as reduction in BRCA1 gene expression at 500 nM incubated for 8 to 24 hrs by qPCR analysis; type: cell-based; conditions: time lower 8.0 hrs, time upper […]
[16] = Toxicity against female Sprague-Dawley rat assessed as effect on hemoglobin level at 7.5 to 30 mg/kg, po administered once daily via gavage for 28 days and measured on day 29; type: organism-based; conditions: in vivo, 696 h, dose 7.5-30 mg/kg, time 29 day
[17] = biological target: Mitogen-activated protein kinase 10 (Homo sapiens) (UniProt P53779); experiment: Inhibition of JNK3 (unknown origin) at 5 uM by DiscoverX KinomeScan ScanMAX analysis
[18] = Toxicity against male Sprague-Dawley rat assessed as effect on AST level in blood at 10 to 40 mg/kg, po administered once daily via gavage for 28 days and measured on day 29; type: organism-based; conditions: in vivo, 696 h, dose 10-40 mg/kg, time 29 day
[19] = Toxicity against male Sprague-Dawley rat assessed as effect on hemoglobin level at 10 to 40 mg/kg, po administered once daily via gavage for 28 days and measured on day 29; type: organism-based; conditions: in vivo, 696 h, dose 10-40 mg/kg, time 29 day
[20] = AUC (0 to infinity) in Sprague-Dawley rat at 1 mg/kg, iv by LC-MS/MS analysis; type: ADME, organism-based; conditions: in vivo
[21] = Half life in Sprague-Dawley rat at 50 mg/kg, po measured for 24 hrs by LC-MS/MS analysis; type: ADME, organism-based; conditions: in vivo
[22] = AUC(0 to t) in female Sprague-Dawley rat at 30 mg/kg, po administered via gavage and measured on day 1; type: ADME, organism-based; conditions: in vivo, 24 h, time 1 day
Cytochrome P450 1A2 = Cytochrome P450 1A2 (Homo sapiens, UniProt P05177); experiment: Inhibition of CYP1A2 in human liver microsomes assessed as inhibition of phenacetin-O-deethylation incubated for 10 mins in presence of NADPH by LC-MS/MS analysis; type: ADME, Microsome
[23] = Half life in female Sprague-Dawley rat at 7.5 mg/kg, po administered via gavage and measured on day 1; type: ADME, organism-based; conditions: in vivo, time 1 day
[24] = biological target: Cyclin-Y/Cyclin-dependent kinase 16 (Homo sapiens) (UniProt Q00536+Q8ND76); experiment: Inhibition of human recombinant N-terminal GST-tagged CDK16/N-terminal GST-tagged Cyclin Y expressed in HEP Sf9 cells using ATP as substrate at 2 uM measured after 60 mins by ADP-Glo reagent based luminescence analysis
[25] = AUC(0 to t) in male Sprague-Dawley rat at 20 mg/kg, po administered once daily via gavage for 28 days; type: ADME, organism-based; conditions: in vivo, 672 h, time 28 day
[26] = Toxicity against female Sprague-Dawley rat assessed as effect on mean corpuscular volume at 7.5 to 30 mg/kg, po administered once daily via gavage for 28 days and measured on day 29; type: organism-based; conditions: in vivo, 696 h, dose 7.5-30 mg/kg, time 29 day
[27] = Toxicity against male Sprague-Dawley rat assessed as effect on mean corpuscular volume at 10 to 40 mg/kg, po administered once daily via gavage for 28 days and measured on day 29; type: organism-based; conditions: in vivo, 696 h, dose 10-40 mg/kg, time 29 day
[28] = biological target: Cyclin-dependent kinase 5/CDK5 activator 1 (Homo sapiens) (UniProt Q00535+Q15078); experiment: Inhibition of human recombinant N-terminal GST-tagged CDK5/N-terminal GST-tagged p35NCK expressed in HEP Sf9 cells using ATP as substrate at 2 uM measured after 60 mins by ADP-Glo reagent based luminescence analysis
[29] = Half life in male Sprague-Dawley rat at 10 mg/kg, po administered via gavage and measured on day 1; type: ADME, organism-based; conditions: in vivo, time 1 day
[30] = Half life in female Sprague-Dawley rat at 30 mg/kg, po administered via gavage and measured on day 1; type: ADME, organism-based; conditions: in vivo, time 1 day
[31] = Toxicity against female Sprague-Dawley rat assessed as effect on chlorine level in blood at 7.5 to 30 mg/kg, po administered once daily via gavage for 28 days and measured on day 29; type: organism-based; conditions: in vivo, 696 h, dose 7.5-30 mg/kg, time 29 day

Cyclin-dependent kinase 7 (Homo sapiens), sequence (P50613 whole entry): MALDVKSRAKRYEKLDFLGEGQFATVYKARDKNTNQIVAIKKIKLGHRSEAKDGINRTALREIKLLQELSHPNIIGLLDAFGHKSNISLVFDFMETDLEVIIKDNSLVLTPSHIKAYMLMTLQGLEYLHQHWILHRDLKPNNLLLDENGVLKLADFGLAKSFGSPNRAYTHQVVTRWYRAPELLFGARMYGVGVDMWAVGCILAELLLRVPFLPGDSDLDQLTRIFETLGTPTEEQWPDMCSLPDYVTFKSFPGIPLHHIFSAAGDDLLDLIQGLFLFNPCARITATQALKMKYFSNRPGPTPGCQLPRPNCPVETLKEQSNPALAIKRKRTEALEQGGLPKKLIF
Mitogen-activated protein kinase 8 (Homo sapiens), sequence (P45983 whole entry): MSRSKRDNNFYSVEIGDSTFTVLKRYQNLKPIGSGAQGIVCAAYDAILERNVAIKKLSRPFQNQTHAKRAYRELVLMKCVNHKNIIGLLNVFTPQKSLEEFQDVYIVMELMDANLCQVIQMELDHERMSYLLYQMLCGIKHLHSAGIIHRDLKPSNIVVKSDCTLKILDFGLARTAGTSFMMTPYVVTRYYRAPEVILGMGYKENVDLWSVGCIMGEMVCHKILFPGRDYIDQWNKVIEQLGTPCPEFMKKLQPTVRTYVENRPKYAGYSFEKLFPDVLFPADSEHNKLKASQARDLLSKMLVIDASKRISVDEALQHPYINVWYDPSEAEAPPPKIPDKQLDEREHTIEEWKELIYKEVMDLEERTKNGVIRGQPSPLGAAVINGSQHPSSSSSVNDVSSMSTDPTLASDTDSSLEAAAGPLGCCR
Cytochrome P450 1A2, sequence (P05177 whole entry): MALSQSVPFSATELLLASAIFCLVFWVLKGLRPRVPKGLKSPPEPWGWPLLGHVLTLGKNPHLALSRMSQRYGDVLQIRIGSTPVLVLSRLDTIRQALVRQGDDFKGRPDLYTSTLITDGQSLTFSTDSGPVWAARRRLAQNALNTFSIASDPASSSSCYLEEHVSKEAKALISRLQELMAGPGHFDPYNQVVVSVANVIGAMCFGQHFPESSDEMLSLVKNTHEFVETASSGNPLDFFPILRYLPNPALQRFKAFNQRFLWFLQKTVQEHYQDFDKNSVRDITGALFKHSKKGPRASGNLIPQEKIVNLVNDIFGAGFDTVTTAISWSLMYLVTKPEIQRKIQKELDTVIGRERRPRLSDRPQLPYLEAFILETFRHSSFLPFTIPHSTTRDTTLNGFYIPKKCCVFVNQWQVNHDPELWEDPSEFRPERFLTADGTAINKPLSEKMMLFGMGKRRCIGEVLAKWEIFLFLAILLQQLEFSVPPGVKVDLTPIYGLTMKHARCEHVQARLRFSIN
Mitogen-activated protein kinase 10 (Homo sapiens), sequence (P53779 whole entry): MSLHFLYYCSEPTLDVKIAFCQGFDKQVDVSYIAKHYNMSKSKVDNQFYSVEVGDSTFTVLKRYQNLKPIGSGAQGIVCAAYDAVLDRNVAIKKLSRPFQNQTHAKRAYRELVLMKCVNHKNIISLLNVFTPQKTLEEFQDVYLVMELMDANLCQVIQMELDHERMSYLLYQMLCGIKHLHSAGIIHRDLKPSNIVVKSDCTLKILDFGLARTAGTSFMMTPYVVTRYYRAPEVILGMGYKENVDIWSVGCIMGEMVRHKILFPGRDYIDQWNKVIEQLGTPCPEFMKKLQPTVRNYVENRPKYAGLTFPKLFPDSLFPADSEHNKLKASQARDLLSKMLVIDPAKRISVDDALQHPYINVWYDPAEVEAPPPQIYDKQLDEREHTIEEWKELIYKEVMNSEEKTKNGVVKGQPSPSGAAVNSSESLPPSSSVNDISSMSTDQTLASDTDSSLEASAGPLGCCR
Cyclin-dependent kinase 5/CDK5 activator 1 (Homo sapiens), sequence (Q00535 whole entry): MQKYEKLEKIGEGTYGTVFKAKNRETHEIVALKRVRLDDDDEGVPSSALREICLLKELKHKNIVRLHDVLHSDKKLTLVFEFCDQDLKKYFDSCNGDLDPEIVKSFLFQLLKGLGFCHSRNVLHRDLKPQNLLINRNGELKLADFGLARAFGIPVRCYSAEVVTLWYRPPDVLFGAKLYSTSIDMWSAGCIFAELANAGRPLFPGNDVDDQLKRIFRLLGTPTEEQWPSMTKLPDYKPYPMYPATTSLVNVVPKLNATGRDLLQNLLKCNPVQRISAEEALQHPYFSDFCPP
Cyclin-dependent kinase 5/CDK5 activator 1 (Homo sapiens), sequence (Q15078 99-307 partner limits assumed): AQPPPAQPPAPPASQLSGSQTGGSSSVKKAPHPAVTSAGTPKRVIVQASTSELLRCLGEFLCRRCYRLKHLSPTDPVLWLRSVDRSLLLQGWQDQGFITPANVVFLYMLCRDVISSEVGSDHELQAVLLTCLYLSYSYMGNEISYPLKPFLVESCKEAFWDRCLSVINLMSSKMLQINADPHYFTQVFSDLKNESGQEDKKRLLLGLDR

inhibition [1]: Active
IC50 (HCT-116 [2]): 0.123 µM
AUC [3]: 4190 ng·h/mL
inhibition [4]: Active
inhibition [5]: 56%
IC50 (HCT-116 [6]): 0.128 µM
half-life [8]: 6.9 h
half-life [10]: 4.1 h
inhibition [11]: Active
IC50 (HCC1395): 0.069 µM
AUCt [14]: 7860 ng·h/mL
inhibition [15]: Active
inhibition [17]: Active
AUC(0-inf) [20]: 270 ng·h/mL
half-life [21]: 6.79 h
AUCt [22]: 9090 ng·h/mL
IC50 (Cytochrome P450 1A2): > 50 µM
half-life [23]: 2 h
inhibition [24]: 64%
AUCt [25]: 2870 ng·h/mL
inhibition [28]: 62%
half-life [29]: 3.2 h
half-life [30]: 4 h
Compound: C=CC(=O)N1CCc2c(ncnc2N2CC[C@@H](Nc3ncc(Cl)c(OC)n3)C2)C1
inhibition (Mus musculus [7]): Active
inhibition (Mus musculus [9]): inactive
inhibition (Mus musculus [12]): Active
Activity [13]: Non-toxic
Activity [16]: Non-toxic
Activity [18]: Non-toxic
Activity [19]: Non-toxic
Activity [26]: Non-toxic
Activity [27]: Non-toxic
Activity [31]: Non-toxic
